In PubChem BioAssay (NCI):
“And” between values parts separate entries of the source, which are not always exact repeats. Equal entries are not always repeated.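 Method: 48-hour compound exposure of cells in 96-well plates, five concentrations, linear interpolation of endpoints. The concentration for 50% growth inhibition is given as GI50. TGI denotes the concentration required for complete inhibition of growth.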

Experiments:
Assay in all cases: NCI anticancer screen, dose series, 48 h
IGROV1 ovarian = tested on: IGROV1 ovarian
SF-295 CNS = tested on: SF-295 CNS
SN12C renal = tested on: SN12C renal
HCC-2998 colon = tested on: HCC-2998 colon
HT29 colon = tested on: HT29 colon
RXF 393 renal = tested on: RXF 393 renal
SF-268 CNS = tested on: SF-268 CNS
HCT-15 colon = tested on: HCT-15 colon
SK-MEL-2 melanoma = tested on: SK-MEL-2 melanoma
NCI-H522 lung = tested on: NCI-H522 lung

Row | SMILES | TGI (IGROV1 ovarian) | TGI (SF-295 CNS) | TGI (SN12C renal) | TGI (HCC-2998 colon) | TGI (HT29 colon) | TGI (RXF 393 renal) | TGI (SF-268 CNS) | GI50 (HCT-15 colon) | TGI (HCT-15 colon) | GI50 (IGROV1 ovarian) | GI50 (SF-295 CNS) | TGI (SK-MEL-2 melanoma) | GI50 (SN12C renal) | GI50 (HCC-2998 colon) | GI50 (HT29 colon) | GI50 (SF-268 CNS) | TGI (NCI-H522 lung) | GI50 (NCI-H522 lung) | GI50 (RXF 393 renal) | GI50 (SK-MEL-2 melanoma)
1 | Cc1c(C(=O)Nc2ccc(Cl)cc2)nc(N)nc1-c1cccc(Cl)c1 | > 100 µM | > 100 µM | > 100 µM | > 100 µM | > 100 µM | > 100 µM | > 100 µM | – | – | – | – | – | – | – | – | – | – | – | – | –
2 | COc1ccc2c(c1)NC(=O)CN2c1nc(C)nc2ccccc12 | 74.9 µM | – | > 100 µM | 34.2 µM | – | > 100 µM | > 100 µM | 0.000413 µM | > 100 µM | 0.000829 µM | 0.000318 µM | > 100 µM | 0.00101 µM | 0.000371 µM | 0.000307 µM | 0.000788 µM | – | – | – | –
3 | CCC12C=CCN3CCC4(C(=C(C(=O)OC)C1)Nc1ccccc14)[C@H]32 (some centres undefined) | > 100 µM | 92.6 µM | – | > 100 µM | 46.8 µM | 56.7 µM | 45.4 µM | – | > 100 µM | – | – | 52 µM | – | – | – | – | 49.4 µM | – | – | –
4 | CCOc1cc[n+](C(=C=[N-])C#N)cc1 | > 100 µM | > 100 µM | > 100 µM | > 100 µM | > 100 µM | > 100 µM | > 100 µM | – | > 100 µM | – | – | – | – | – | – | – | > 100 µM | – | – | –
5 | COc1cc(OC)c2c(c1Cl)O[C@]1(C2=O)C(OCc2ccccc2)=CC(=O)C[C@H]1C | 79.6 µM | 5.59 µM | 14 µM | 7.03 µM | 15.8 µM | 29.1 µM | 53.8 µM | 0.487 µM | > 100 µM | 2.79 µM | 0.492 µM | – | 0.833 µM | 1.49 µM | 0.534 µM | 1.82 µM | 4.66 µM | 0.694 µM | 0.899 µM | –
6 | CC(=O)OC1(C#N)CC2OC1C1NC21 (centres undefined) | > 100 µM | – | > 100 µM | > 100 µM | – | > 100 µM | > 100 µM | – | > 100 µM | – | – | > 100 µM | – | – | – | – | > 100 µM | – | – | –
7 | NC(=S)N=Nc1c(O)[nH]c2ccccc12 | 477 µM | 498 µM | 331 µM | – | > 1000 µM | 262 µM | 989 µM | 139 µM | 470 µM | 66.7 µM and 162 µM | 197 µM | > 1000 µM | 154 µM | – | 652 µM | 189 µM | 343 µM | 159 µM | 134 µM | 296 µM
8 | CCc1cccc(CC)c1NC(=O)C1=CNC(C)=C(C(=O)Nc2c(CC)cccc2CC)C1c1ccc(O)c(OC)c1 (centres undefined) | > 100 µM | 73.8 µM | > 100 µM | 88.8 µM | 80.2 µM | 93.9 µM | > 100 µM | – | – | – | – | 91.8 µM | – | – | – | – | 77.4 µM | – | – | –
9 | N#CC1C(=O)NC(=O)C(C#N)C1c1ccc(Cl)c(Cl)c1 (centres undefined) | 47.3 µM | > 100 µM | – | – | 33 µM | 50.5 µM | > 100 µM | – | 46.1 µM | – | – | > 100 µM | – | – | – | – | 38 µM | – | – | –
10 | N#CC(CC(=O)O)=C(c1ccccc1)c1ccccc1 | > 100 µM | > 100 µM | > 100 µM | > 100 µM | > 100 µM | – | > 100 µM | – | > 100 µM | – | – | > 100 µM | – | – | – | – | > 100 µM | – | – | –
11 | O=C(OCc1ccccc1)c1ccccc1-c1c2ccc(=O)cc-2oc2cc(OCc3ccccc3)ccc12 | 44.3 µM | 80.3 µM | 74.4 µM | 56 µM | 55.5 µM | 34 µM | > 100 µM | – | 63.3 µM | – | – | 46.7 µM | – | – | – | – | – | – | – | –
12 | C(=NCCN=Cc1cccc2ccccc12)c1cccc2ccccc12 | > 100 µM | > 100 µM | > 100 µM | > 100 µM | > 100 µM | > 100 µM | – | – | > 100 µM | – | – | > 100 µM | – | – | – | – | > 100 µM | – | – | –
13 | O=C1CC2OCC=C3CN4CCC56c7ccccc7N1C5C2C3CC46 (centres undefined) (tested in a mixture with another compound) | > 50 µg/mL | > 50 µg/mL | > 50 µg/mL | – | > 50 µg/mL | > 50 µg/mL | > 50 µg/mL | > 50 µg/mL | > 50 µg/mL | > 50 µg/mL | > 50 µg/mL | > 50 µg/mL | > 50 µg/mL | – | > 50 µg/mL | > 50 µg/mL | > 50 µg/mL | > 50 µg/mL | > 50 µg/mL | > 50 µg/mL
14 | OCC(O)C(OC1OC(CO)C(O)C(O)C1O)c1nn(-c2ccc(Cl)cc2)c2nc3cc(Cl)ccc3nc12 (centres undefined) | – | > 100 µM | > 100 µM | > 100 µM | > 100 µM | > 100 µM | > 100 µM | – | > 100 µM | – | – | – | – | – | – | – | > 100 µM | – | – | –
15 | Cc1ccccc1NC(=O)CC(=O)n1nc(-c2ccccc2)c(N=Nc2ccc([N+](=O)[O-])cc2)c1-c1ccccc1 | > 100 µM | 49.6 µM | 58.4 µM | 51.3 µM | 24.5 µM | 82 µM | > 100 µM | – | – | – | – | > 100 µM | – | – | – | – | 45.5 µM | – | – | –
16 | O=C(Nc1ccc(N2CCNCC2)cn1)c1[nH]ncc1Nc1ncnc2sc3c(c12)CCC3 | – | 23.9 µM | 4.59 µM | 36.2 µM | – | – | – | – | – | – | 4.31 µM | 35.1 µM | 2 µM | 14.1 µM | – | – | 4.82 µM | 1.92 µM | – | 13.6 µM
17 | N#CC1([N+](=O)[O-])C=C1c1ccccc1 (centres undefined) | > 100 µM | > 100 µM | > 100 µM | – | > 100 µM | – | > 100 µM | – | > 100 µM | – | – | > 100 µM | – | – | – | – | 56.6 µM | – | – | –
18 | Nc1ncnc2c1ncn2C1OC(C(=O)OCCO)C(O)C1O (centres undefined) | > 100 µM | > 100 µM | > 100 µM | – | > 100 µM | > 100 µM | > 100 µM | – | > 100 µM | – | – | > 100 µM | – | – | – | – | > 100 µM | – | – | –
19 | N#CC12CC3(CCC1CCC1(C2)OCCO1)OCCO3 (centres undefined) | > 100 µM | > 100 µM | > 100 µM | > 100 µM | – | > 100 µM | > 100 µM | – | > 100 µM | – | – | > 100 µM | – | – | – | – | > 100 µM | – | – | –
20 | CN/N=C(/CC(=O)c1sc(NNC(C)=O)nc1C)C(=O)Nc1ccc(OC)cc1OC | > 100 µM | > 100 µM | > 100 µM | > 100 µM | > 100 µM | – | > 100 µM | – | > 100 µM | – | – | > 100 µM | – | – | – | – | > 100 µM | – | – | –
21 | CCN(CC)c1ccc(N=C2C=CC(=C(C#N)C#N)c3ccccc32)c(C)c1 | 8.86 µM | 5.66 µM | 7.86 µM | – | 24.9 µM | 3.24 µM | – | – | 10.2 µM | – | – | 5.48 µM | – | – | – | – | – | – | – | –
